Drawing on US7354922B2, “Bridged ring NK1 antagonists” (Schering Corporation, priority 2004, dated 2008), this text covers Ki for 17 compounds.

The test concerns the target NK1 receptor (Homo sapiens, UniProt P25103). Nature of the test: NK1 receptor binding (inhibition of Substance P binding, Ki by Chang-Prusoff equation). An excerpt: The in vitro and in vivo NK1, NK2 and NK3 activities of the compounds of Formula (I) can be determined by various procedures known in the art, such as a test for their ability to inhibit the activity of the NK1 agonist Substance P. The percent inhibition of neurokinin agonist activity is the difference between the percent of maximum specific binding (“MSB”) and 100%. The percent of MSB is defined by the following equation, wherein “dpm” represents “disintegrations per minute”:
[formula] The concentration at which the compound produces 50% inhibition of binding is then used to determine an inhibition constant (“Ki”) using the Chang-Prusoff equation.
The activities (potencies) for the compounds of the invention are determined by measuring their Ki values. […] Even more preferred are compounds having average Ki values of from 0.05 nM to about 5 nM for the NK1 receptor. Especially preferred compounds have NK1 average Ki values of from 0.05 nM to about 1 nM. Even more especially preferred compounds have NK1 average Ki values of from 0.05 nM to about 0.2 nM.

Sequence of NK1 receptor (P25103 whole entry, species assumed): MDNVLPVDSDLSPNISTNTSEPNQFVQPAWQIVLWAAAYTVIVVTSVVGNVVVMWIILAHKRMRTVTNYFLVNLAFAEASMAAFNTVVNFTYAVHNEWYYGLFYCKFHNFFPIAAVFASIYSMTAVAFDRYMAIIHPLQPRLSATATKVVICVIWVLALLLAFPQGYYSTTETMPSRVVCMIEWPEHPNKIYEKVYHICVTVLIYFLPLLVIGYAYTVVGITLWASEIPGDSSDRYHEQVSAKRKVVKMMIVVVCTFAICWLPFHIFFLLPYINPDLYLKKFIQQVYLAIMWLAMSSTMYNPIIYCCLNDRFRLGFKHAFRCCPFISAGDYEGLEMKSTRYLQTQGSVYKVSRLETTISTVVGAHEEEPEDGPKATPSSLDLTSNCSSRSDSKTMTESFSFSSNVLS

As usually defined, the Ki is the equilibrium dissociation constant of an inhibitor or competing ligand from its target. Higher therefore signals lower affinity. The compound `C[C@@H](OC[C@@]1(c2ccccc2)CC[C@]2(CO)CN1CC(=O)N2)c1cc(C(F)(F)F)cc(C(F)(F)F)c1` [Example 3a] came in with an inhibition constant Ki of 0.15 nM.

`C[C@@H](OC[C@@]1(c2ccccc2)CC[C@@]23COCCN2C(=O)CN1C3)c1cc(C(F)(F)F)cc(C(F)(F)F)c1` [Example 51] had an inhibition constant Ki of 0.12 nM.

Take `C[C@@H](OC[C@@]1(c2ccccc2)CC[C@]2(COC(N)=O)CN1CC(=O)N2)c1cc(C(F)(F)F)cc(C(F)(F)F)c1` [Example 15]: the Ki stood at 0.09 nM.

For `C[C@@H](OC[C@@]1(c2ccccc2)CC[C@]2(CO)CN1CC(=O)O2)c1cc(C(F)(F)F)cc(C(F)(F)F)c1` [Example 49], affinity was put at a Ki of 0.16 nM.

In turn, `C[C@@H](OC[C@@]1(c2ccccc2)CC[C@@H]2CN1CCN2C(N)=O)c1cc(C(F)(F)F)cc(C(F)(F)F)c1` [Example 5] displayed a Ki of 0.1 nM.

`C[C@@H](OC[C@@]1(c2ccccc2)CC[C@]2(Cn3cnnn3)CN1CC(=O)N2)c1cc(C(F)(F)F)cc(C(F)(F)F)c1` [Example 20] registered a Ki of 0.15 nM.

`C[C@@H](OC[C@@]1(c2ccccc2)CC[C@]2(CC#N)CN1CC(=O)N2)c1cc(C(F)(F)F)cc(C(F)(F)F)c1` [Example 8] showed a Ki of 0.12 nM.

Regarding `C[C@@H](OC[C@@]1(c2ccccc2)CC[C@]2(CC(N)=O)CN1CC(=O)N2)c1cc(C(F)(F)F)cc(C(F)(F)F)c1` [Example 16], the affinity corresponds to a Ki of 0.16 nM.

Take `CSC[C@]12CC[C@@](CO[C@H](C)c3cc(C(F)(F)F)cc(C(F)(F)F)c3)(c3ccccc3)N(CC(=O)N1)C2` [Example 34]: the Ki was 0.07 nM.

`COC[C@]12CC[C@@](CO[C@H](C)c3cc(C(F)(F)F)cc(C(F)(F)F)c3)(c3ccccc3)N(CC(=O)N1)C2` [Example 12] gave a Ki of 0.13 nM.

`C[C@@H](OC[C@@]1(c2ccccc2)CC[C@@]2(NC(N)=O)CCCN1C2)c1cc(C(F)(F)F)cc(C(F)(F)F)c1` [Example 47] yielded an inhibition constant Ki of 0.12 nM.

For the compound `C[C@@H](OC[C@@]1(c2ccccc2)CC[C@]2(CNC3CC3)CN1CC(=O)N2)c1cc(C(F)(F)F)cc(C(F)(F)F)c1` [Example 32], the Ki amounted to 0.11 nM.

In the case of `C[C@@H](OC[C@@]1(c2ccccc2)CC[C@]2(CN3CCCCC3=O)CN1CC(=O)N2)c1cc(C(F)(F)F)cc(C(F)(F)F)c1` [Example 30], the Ki turned out to be 0.11 nM.

With `C[C@@H](OC[C@@]1(c2ccccc2)CC[C@]2(CNS(C)(=O)=O)CN1CC(=O)N2)c1cc(C(F)(F)F)cc(C(F)(F)F)c1` [Example 38], the inhibition constant Ki turned out to be 0.12 nM.

Take `CC(C)=NOC[C@]12CC[C@@](CO[C@H](C)c3cc(C(F)(F)F)cc(C(F)(F)F)c3)(c3ccccc3)N(CC(=O)N1)C2` [Example 33]: the inhibition constant (Ki) worked out at 0.13 nM.

Compound `C[C@@H](OC[C@@]1(c2ccccc2)CC[C@]2(CO)CN1CCN2)c1cc(C(F)(F)F)cc(C(F)(F)F)c1` [Example 57] yielded an inhibition constant Ki of 0.12 nM.

`C[C@@H](OC[C@@]1(c2ccccc2)CC[C@@H]2CN1CCN2)c1cc(C(F)(F)F)cc(C(F)(F)F)c1` [Example 4]: the Ki is 0.11 nM.
